Measurements published in patent EP0517126A1, “Use of diacetyl-splenopentin in chemotherapy and radiation therapy” (WOGEPHARM GmbH, priority 1991, dated 1992).
No end group written: not given here.

Assays:
Assay type in all cases: in vivo, BALB/c-Mäuse
Knochenmarkstammzellen [1] = assay: Agar colony test (CFU test) of bone marrow stem cells after sublethal X-ray irradiation, followed by DA-SP5; details: after single X-ray irradiation, DA-SP5 10 µg i.p. three times weekly, normal value 121 ± 23
Text: (§1) Es wurde gefunden, daß als Folge einer Therapie mit Zytostatika bzw. durch eine Bestrahlungstherapie sich im Blut der entsprechend behandelten Patienten die Zahl immunologischer Abwehrzellen vermindert. Dies resultiert, weil durch die o. g. Therapie auch die Stammzellen des Knochenmarks (aus diesen entstehen die immunologischen Abwehrzellen) zytotoxisch geschädigt werden. Die Substanz DA-SP5 erhöht die Nachbildung von immunologischen Abwehrzellen aus Stammzellen des Knochenmarks (W. DIEZEL et al. (1989): DD-PS 268160 Al). Es hat sich gezeigt, daß DA-SP5 direkt die Proliferation unreifer Stammzellen des Knochenmarks beschleunigen kann bzw. die Wirkung des Kolonien-stimulierrenden Faktors GM-CSF synergistisch erhöht. Überraschenderweise wurde jetzt festgestellt, daß als Folge dieser Wirkung die zytotoxische Schädigung von Knochenmarkstammzellen (und damit die verminderte Entstehung immunologischer Abwehrzellen) durch Chemotherapeutika bzw. infolge Bestrahlung der Zellen, kompensiert werden kann. Die erfindungsgemäße Wirkung wurde dadurch festgestellt, indem BALB/c-Mäuse hochdosiert mit zytotoxischen (Zellproliferations-hemmenden) Therapeutika systemisch behandelt wurden. Anschließend erfolgte eine Therapie mit DA-SP5 bzw. es wurde lediglich 0,9%ige NaCl-Lösung (Kontrallgruppe) appliziert. Während dieser Therapie wurde untersucht, ob die DE-SP5-behandelten Tiere zeitlich eher befähigt wurden "Knochenmarkstammzell-Kolonien" entsprechend der Norm zu bilden. Eine diesbezüglich schnellere Bildung korreliert mit einer schnelleren Entstehung entsprechender immunologischer Abwehrzellen im Blut. In einer weiteren Versuchsserie wurden BALB/c-Mäuse subletal bestrahlt, und anschließend ebenfalls mit oder ohne DA-SP5 behandelt. Auch bei diesen Tieren wurde untersucht, ob sie zeitlich eher befähigt waren, "Knochenmarkzell-Kolonien" entsprechend der Norm zu bilden. Das erfindungsgemäß verwendete Mittel wurde in Mengen von 0,05mg bis 1,0 mg pro kg Körpergewicht verabreicht. […]

Knochenmarkstammzellen [2] = assay: Agar colony test (CFU test) of bone marrow stem cells after methotrexate treatment, followed by DA-SP5; details: after Methotrexat 175 mg/kg days +1 to +5, DA-SP5 10 µg i.p. three times weekly, normal value 121 ± 23
Text: as §1

Knochenmarkstammzellen [3] = assay: Agar colony test (CFU test) of bone marrow stem cells after dexamethasone treatment, followed by DA-SP5; details: after Dexamethason 150 mg/kg i.p. days +1 to +5, DA-SP5 10 µg i.p. three times weekly, normal value 121 ± 23
Text: as §1

Ac-RK(Ac)EVY [DA-SP5, (N^α-acetyl-L-arginyl)-(N^ε-acetyl-L-lysyl)-L-glutamyl-L-valyl-L-tyrosin]
Kolonien pro Femur (x̄ ± s) (Knochenmarkstammzellen [1]; Tag Nr.10 of DA-SP5 therapy): 8 ± 6 | Kolonien pro Femur (x̄ ± s) (Knochenmarkstammzellen [1]; Tag Nr.20 of DA-SP5 therapy): 116 ± 10 | Kolonien pro Femur (x̄ ± s) (Knochenmarkstammzellen [1]; Tag Nr.40 of DA-SP5 therapy): 126 ± 12 | Kolonien pro Femur (x̄ ± s) (Knochenmarkstammzellen [2]; Tag Nr. 10 of DA-SP5 therapy): 9 ± 6 | Kolonien pro Femur (x̄ ± s) (Knochenmarkstammzellen [2]; Tag Nr. 20 of DA-SP5 therapy): 53 ± 24 | Kolonien pro Femur (x̄ ± s) (Knochenmarkstammzellen [2]; Tag Nr. 40 of DA-SP5 therapy): 110 ± 20 | Kolonien pro Femur (x̄ ± s) (Knochenmarkstammzellen [3]; Tag Nr. 10 of DA-SP5 therapy): 10 ± 8 | Kolonien pro Femur (x̄ ± s) (Knochenmarkstammzellen [3]; Tag Nr. 20 of DA-SP5 therapy): 55 ± 21 | Kolonien pro Femur (x̄ ± s) (Knochenmarkstammzellen [3]; Tag Nr. 40 of DA-SP5 therapy): 126 ± 18
